We go through 1 molecule from patent US12521419B2, “Use of anti-aging glycopeptides to enhance pancreatic cell health, survival and improve transplant outcome” (Protokinetix Inc., priority 2014, dated 2026).

In test [1] the test system is human islets. The experiment in a line: Viability by fluorescent membrane integrity assay (syto green/ethidium bromide). It is filed as cell-based. The conditions noted are these: 24 h ± AAGP then 24 hr tacrolimus 10 ng/mL. The procedure: After 24 hr of culture, islets are assessed for recovery, viability and function. Recovery rate is calculated as the percentage of surviving islets after 24 hr culture in comparison to the initial count for each condition. Viability is assessed using a fluorescent membrane integrity assay with counter-stains syto green/ethidium bromide (Cedarlane Laboratories, Burlington, ON, and Sigma-Aldrich, ON) (Islet isolation for clinical transplantation. In: Shahidul. M, (ed). The islets of Langerhans. New York: Springer, 2010; Ranuncoli A, et al. Cell transplantation 2000; 9(3):409-414; Ricordi C. et al. Acta diabetologica latina 1990; 27(3):185-195; and Barnett M J et al. Cell transplantation 2004; 13(5):481-488).

Test [2] relates to human islets. The experiment in a line: Extracellular ROS in culture media, Acridan Lumigen PS-3 assay. It is filed as cell-based. The conditions noted are these: media 24 hr after tacrolimus exposure, ± AAGP. Here is the method: Frozen samples from all groups are utilized to determine reactive oxygen species (ROS) in the culture media, using the Acridan Lumigen™ PS-3 assay (Amershan ECL Plus kit, Fisher Scientific Inc. Ottawa, ON, Canada) (18). In this assay Acridan Lumigen™ PS-3 is excited by reactive oxygen and nitrogen species (RNS) in the presence of hydrogen peroxide, producing chemiluminescense at 430 nm. Media samples are flash-frozen with liquid nitrogen and stored until the assay is performed. CMRL culture media alone is used as a control, and results are expressed as fold-change increase compared to the control media.

Another test has as its system mouse splenocytes. The experiment in a line: Allogeneic mixed lymphocyte reaction, T cell proliferation by CFSE staining. It is filed as cell-based. Particulars: vs IgG control, n=4. The source says:
The assay measures T cell proliferative response by levels of CFSE staining.

The test system of test [3] is human islets. The experiment in a line: Capacitance measurement as indicator of exocytosis upon high glucose stimulation. It is filed as cell-based. The procedure: Complementary capacitance studies were performed with these same conditions as an indirect indicator of exocytosis upon high glucose stimulation.
Test [4] concerns human islets. The experiment in a line: Intra-islet calcium concentration. Particulars: Tac−, Tac+AAGP groups. It is filed as cell-based. Here is the method:
Various electrophysiology studies were performed on human islets to elucidate a potential mechanism of action for the AAGP™ by characterizing the CNI-related injury and its avoidance.

Test [5] has as its system human islets transplanted under the kidney capsule. The experiment in a line: Proinflammatory cytokines and chemokines in homogenized graft 24 h post-transplant. Particulars: 24 h after transplant, 1,000 IEQ, islets cultured with tacrolimus ± AAGP, n=3. It is filed as in vivo, immunodeficient mice. Here is the method:
After 24 hr exposure to tacrolimus, samples from culture media of all groups are frozen and relevant cytokines and chemokines (IFN-γ, IL-1β, IL-6, IL-10, IL-12, Keratinocyte-derived Chemokine (KC), and TNF-α) are measured using a Multi-Spot Human ProInflammatory 7-Plex Ultra-Sensitive kit (Meso Scale Discovery®, Gaithersburg, MD, USA), analyzed on the SECTOR™ Imager (Meso Scale Discovery®, Gaithersburg, MD, USA). Results are expressed as absolute values (pg/mL), and CMRL culture media alone is used as a control for comparison.
Eight to 12 week immunodeficient mice (B6.129S7-Rag1^tm1Mom) are obtained from the Jackson Laboratory (Bar Harbor, ME, USA) and housed under specific pathogen-free conditions with access to food and water ad libitum. Animals are cared for according to the guidelines of the Canadian Council on Animal Care, and ethical approval is obtained from the animal welfare committee at the University of Alberta.
Animals are considered diabetic after two consecutive blood glucose measurements are documented≥18 mmol/L.
Ten animals per group received approximately 1,000 IEQ human islets transplanted under the capsule of the left kidney as described previously (19).
Three mice per group underwent nephrectomy and are euthanized 24 hr post-transplant to perform acute determination of proinflammatory cytokines, cleaved capase-3 and TUNEL in the graft area. In all cases the islet graft is excised from the kidney, weighed, flash frozen in liquid nitrogen and stored at −80° C. Tissue samples are subsequently lysed using 1 ml of lysis buffer (0.15 M NaCl, 1 mM Tris-HCL, 0.1% SDS, 0.1% Triton X-100, 20 mM Sodium deoxycholate, 5 mM EDTA) per 200 mg of tissue. Lysates are then homogenized (PowerGen, Fisher Scientific, ON, Canada) on ice for 30 sec×2 replications, and sonicated (VirSonic, VirTis, NY, USA) with 10 quick pulses while on ice. Cellular debris is pelleted by centrifugation at 14,000 rpm for 10 min at 4° C. and the resulting supernatant is collected and placed in a microcentrifuge tube containing 10 μl of a protease inhibitor cocktail (Sigma-Aldrich Canada Co., Oakville, ON, Canada) per 1 ml of lysate (1:100).
Graft samples are assayed (using the corresponding mouse kit) for pro-inflammatory cytokines/chemokines, caspase-3 and TUNEL staining, as previously described. All determinations are adjusted per gram of tissue.
Further in vivo testing is performed to complement our in vitro findings. Using the same study groups (Tac−, Tac+ and Tac+AAGP™) minimal mass (1,000 IEQ) islet transplants are performed in chemically-induced diabetic immunodeficient mice (n=10 per group). […]

With `C=CC[C@@H]1/C=C(\C)C[C@H](C)C[C@H](OC)[C@H]2O[C@@](O)(C(=O)C(=O)N3CCCC[C@H]3C(=O)O[C@H](/C(C)=C/[C@@H]3CC[C@@H](O)[C@H](OC)C3)[C@H](C)[C@@H](O)CC1=O)[C@H](C)C[C@@H]2OC.O` [Tac+, tacrolimus], the “cell viability by membrane integrity stain” value in the test on human islets [1] was “no difference in cell viability”. In the test with human islets [2], the “extracellular ROS (fold-increase vs control media)” value is listed as “substantial increase in ROS”. For the same molecule, the “T cell proliferation (CD8+ and CD4+)” value in the test on mouse splenocytes was “significantly decreased”. Moreover, the “cumulative capacitance area under the curve” value with human islets [3] worked out at 39.08. In addition, in the test with human islets [4], the “calcium concentration in islets” value was “neither tacrolimus nor AAGP™ affected the calcium concentration”. Also, in test [5], the “IL-1β level in graft” value came to 17.81 pg/mL/g-tissue, the “IL-6 level in graft” value was found to be 147.8 pg/mL/g-tissue, the “KC (keratinocyte chemokine) level in graft” value was 9.79 pg/mL/g-tissue and the “TNF-α level in graft” value came to 1.63 pg/mL/g-tissue.
